The test system of the data set is fibromyalgia patients. The experiment in a line: Clinical studies in fibromyalgia patients. Format: in vivo, human. As for the experimental part: Pressure of approximate 4 kg/cm^2 is applied manually at multiple anatomic points of patients with fibromyalgia to evaluate pain and tenderness. A useful device for quantitating pain sensitivity is a pressure algometer or dolorimeter. […] Clinical studies are performed in fibromyalgia patients that have not responded to conventional physical therapy and have been present for at least one year. In one embodiment, thalidomide is administered in an amount of 100 to 400 mg per day to patients with fibromyalgia for from three months to one year. A baseline evaluation is performed for the effect of the drug treatment on pain intensity, impact of pain on activities of daily living, and consumption of other pain medications.

Data on one molecule can be found in patent publication US20050119194A1, “Methods of using and compositions comprising thalidomide for treatment, modification and management of fibromyalgia” (priority 2003, published 2005).

With `O=C1CCC(N2C(=O)c3ccccc3C2=O)C(=O)N1` (racemic) [thalidomide, 2-(2,6-dioxo-3-piperidinyl)-1H-isoindole-1,3(2H)-dione], the Tolerability of treatment entry (300 mg continuous oral daily dose) is recorded as “well-tolerated”. In addition, the “Analgesic effect in fibromyalgia” value (100 to 400 mg per day for three months to one year) is recorded as “analgesic benefit”.
